Assay type in all cases: in vivo
Assay [1] relates to Alopecurus myosuroides. Briefly: Pre-emergence herbicidal effect. As to conditions: scored visually after 3 weeks. The source says: (§1) Seeds of monocotyledonous and dicotyledonous weed plants and crop plants are laid out in wood-fibre pots in sandy loam and covered with soil. The compounds according to the invention formulated in the form of wettable powders (WP) or as emulsion concentrates (EC) are then applied as aqueous suspension or emulsion at a water application rate of 600 to 800 I/ha (converted) with the addition of 0.2% wetting agent to the surface of the covering soil. After the treatment, the pots are placed in a greenhouse and kept under good growth conditions for the trial plants. The damage to the test plants is scored visually after a test period of 3 weeks by comparison with untreated controls (herbicidal activity in percent (%): 100% activity=the plants have died, 0% activity=like control plants).

Assay [2] concerns Avena fatua. Nature of the assay: Pre-emergence herbicidal effect. The settings on record: scored visually after 3 weeks.
From the text: as §1

Assay [3] has as its system Echinochloa crus-galli. Nature of the assay: Pre-emergence herbicidal effect. The settings on record: scored visually after 3 weeks.
From the text: as §1

Assay [4] concerns Lolium multiflorum. Briefly: Pre-emergence herbicidal effect. The settings on record: scored visually after 3 weeks.
From the text: as §1

Assay [5] concerns Setaria viridis. Briefly: Pre-emergence herbicidal effect. The settings on record: scored visually after 3 weeks.
From the text: as §1

In assay [6] the test system is Echinochloa crus-galli. Briefly: Post-emergence herbicidal effect. As to conditions: assessed visually after about 3 weeks. On the procedure:
(§2) Seeds of monocotyledonous and dicotyledonous weed and crop plants are laid out in sandy loam in wood-fibre pots, covered with soil and cultivated in a greenhouse under good growth conditions. 2 to 3 weeks after sowing, the test plants are treated at the one-leaf stage. The compounds according to the invention, formulated in the form of wettable powders (WP) or as emulsion concentrates (EC), are then sprayed as aqueous suspension or emulsion at a water application rate of 600 to 800 I/ha (converted) with the addition of 0.2% of wetting agent onto the green parts of the plants. After the test plants have been left to stand in the greenhouse under optimal growth conditions for about 3 weeks, the action of the preparations is assessed visually in comparison to untreated controls (herbicidal action in percent (%): 100% activity=the plants have died, 0% activity=like control plants).

Assay [7] has as its system Alopecurus myosuroides. Nature of the assay: Post-emergence herbicidal effect. The settings on record: assessed visually after about 3 weeks. On the procedure:
as §2

The subject of assay [8] is Lolium multiflorum. Nature of the assay: Post-emergence herbicidal effect. The settings on record: assessed visually after about 3 weeks. On the procedure: as §2
Assay [9] relates to Setaria viridis. Nature of the assay: Post-emergence herbicidal effect. The settings on record: assessed visually after about 3 weeks. On the procedure:
as §2

Assay [10] has as its system Avena fatua. Briefly: Post-emergence herbicidal effect. As to conditions: assessed visually after about 3 weeks. On the procedure: as §2

This note sets out measurements from patent publication US11178868B2, “Alkynyl-substituted 3-phenylpyrrolidine-2,4-diones and use thereof as herbicides” (Bayer CropScience Aktiengesellschaft, priority 2015, dated 2021).

For `CC#Cc1cc(CC)c(C2=C(OC(=O)OCC)C3(CCCC(OCC)C3)NC2=O)c(CC)c1` (single isomer, unassigned) [Example P2], the “Herbicidal effect against [%] ALOMY” value in the assay with Alopecurus myosuroides [1] (80 g a.i./ha) and with Alopecurus myosuroides [1] (320 g a.i./ha) was 100% in each case. The “Herbicidal effect against [%] AVEFA” value in the assay with Avena fatua [2] (80 g a.i./ha) and with Avena fatua [2] (320 g a.i./ha) was 100% each time. Further, the “Herbicidal effect against [%] ECHCG” value is 100% in the assay on Echinochloa crus-galli [3] (80 g a.i./ha), 100% in the assay with Echinochloa crus-galli [3] (320 g a.i./ha) and 80% in the assay with Echinochloa crus-galli [6] (80 g a.i./ha). Also, the “Herbicidal effect against [%] LOLMU” value in the assay on Lolium multiflorum [4] (80 g a.i./ha) and in the assay with Lolium multiflorum [4] (320 g a.i./ha) was 100% in each case. The “Herbicidal effect against [%] SETVI” value with Setaria viridis [5] (80 g a.i./ha) and in the assay with Setaria viridis [5] (320 g a.i./ha) was 100% each time.

Consider `CC#Cc1cc(CC)c(C2=C(O)C3(CCCC(OCC)C3)NC2=O)c(CC)c1` (stereo not shown) [Example D1], for which the “Herbicidal effect against [%] ALOMY” value in the assay on Alopecurus myosuroides [1] (80 g a.i./ha) amounted to 100%; in the assay on Alopecurus myosuroides [1] (320 g a.i./ha), 100%; in the assay with Alopecurus myosuroides [7] (20 g a.i./ha) it was 80%; in the assay with Alopecurus myosuroides [7] (80 g a.i./ha), 100%. For the same molecule, the “Herbicidal effect against [%] AVEFA” value in the assay with Avena fatua [2] (80 g a.i./ha) is 80%; with Avena fatua [2] (320 g a.i./ha), 100%. Also, the “Herbicidal effect against [%] ECHCG” value with Echinochloa crus-galli [3] (80 g a.i./ha), with Echinochloa crus-galli [3] (320 g a.i./ha), in the assay with Echinochloa crus-galli [6] (20 g a.i./ha) and in the assay with Echinochloa crus-galli [6] (80 g a.i./ha) was 100% throughout. Moreover, the “Herbicidal effect against [%] LOLMU” value with Lolium multiflorum [4] (80 g a.i./ha) is listed as 100%; in the assay with Lolium multiflorum [4] (320 g a.i./ha), 100%; in the assay with Lolium multiflorum [8] (80 g a.i./ha), 90%. In addition, the “Herbicidal effect against [%] SETVI” value in the assay on Setaria viridis [5] (80 g a.i./ha) is given as 100%; in the assay on Setaria viridis [5] (320 g a.i./ha), 100%; with Setaria viridis [9] (20 g a.i./ha) it was 90%; in the assay with Setaria viridis [9] (80 g a.i./ha), 100%.

Take `CC#Cc1cc(C)c(C2=C(O)C3(CCCC(OCC)C3)NC2=O)c(C)c1` (stereo not shown) [Example D2]: the “Herbicidal effect against [%] ALOMY” value with Alopecurus myosuroides [1] (80 g a.i./ha) turned out to be 100%; in the assay on Alopecurus myosuroides [1] (320 g a.i./ha) it was 100%; in the assay with Alopecurus myosuroides [7] (80 g a.i./ha) it was 90%. Moreover, the “Herbicidal effect against [%] AVEFA” value was determined as 80% in the assay on Avena fatua [2] (80 g a.i./ha) and 100% in the assay with Avena fatua [2] (320 g a.i./ha). In addition, the “Herbicidal effect against [%] ECHCG” value was determined as 100% with Echinochloa crus-galli [3] (80 g a.i./ha), 100% in the assay with Echinochloa crus-galli [3] (320 g a.i./ha), 90% in the assay on Echinochloa crus-galli [6] (20 g a.i./ha) and 100% in the assay with Echinochloa crus-galli [6] (80 g a.i./ha). The “Herbicidal effect against [%] LOLMU” value in the assay with Lolium multiflorum [4] (80 g a.i./ha), in the assay on Lolium multiflorum [4] (320 g a.i./ha) and with Lolium multiflorum [8] (80 g a.i./ha) was 100% in each case. Moreover, the “Herbicidal effect against [%] SETVI” value with Setaria viridis [5] (80 g a.i./ha) amounted to 100%; with Setaria viridis [5] (320 g a.i./ha) it was 100%; in the assay on Setaria viridis [9] (80 g a.i./ha) it was 90%.

With `CC#Cc1cc(CC)c(C2=C(O)C3(CCCC(OCCOC)C3)NC2=O)c(CC)c1` (stereo not shown) [Example D5], the “Herbicidal effect against [%] ALOMY” value in the assay on Alopecurus myosuroides [1] (80 g a.i./ha), with Alopecurus myosuroides [1] (320 g a.i./ha), in the assay with Alopecurus myosuroides [7] (20 g a.i./ha) and with Alopecurus myosuroides [7] (80 g a.i./ha) was 100% each time. Further, the “Herbicidal effect against [%] AVEFA” value in the assay with Avena fatua [2] (80 g a.i./ha), with Avena fatua [2] (320 g a.i./ha), with Avena fatua [10] (20 g a.i./ha) and in the assay on Avena fatua [10] (80 g a.i./ha) was 100% each time. Moreover, the “Herbicidal effect against [%] ECHCG” value with Echinochloa crus-galli [3] (80 g a.i./ha), in the assay with Echinochloa crus-galli [3] (320 g a.i./ha), with Echinochloa crus-galli [6] (20 g a.i./ha) and in the assay on Echinochloa crus-galli [6] (80 g a.i./ha) was 100% each time. Further, the “Herbicidal effect against [%] LOLMU” value in the assay with Lolium multiflorum [4] (80 g a.i./ha), with Lolium multiflorum [4] (320 g a.i./ha), in the assay with Lolium multiflorum [8] (20 g a.i./ha) and in the assay on Lolium multiflorum [8] (80 g a.i./ha) was 100% in each case. Further, the “Herbicidal effect against [%] SETVI” value in the assay with Setaria viridis [5] (80 g a.i./ha), in the assay with Setaria viridis [5] (320 g a.i./ha), with Setaria viridis [9] (20 g a.i./ha) and with Setaria viridis [9] (80 g a.i./ha) was 100% in each case.

On to `CC#Cc1ccc(C2=C(O)C3(CCCC(OCCOC)C3)NC2=O)c(CC)c1` (stereo not shown) [Example D7], for which the “Herbicidal effect against [%] ALOMY” value in the assay on Alopecurus myosuroides [1] (80 g a.i./ha), with Alopecurus myosuroides [1] (320 g a.i./ha), in the assay with Alopecurus myosuroides [7] (20 g a.i./ha) and in the assay with Alopecurus myosuroides [7] (80 g a.i./ha) was 100% throughout. The “Herbicidal effect against [%] AVEFA” value with Avena fatua [2] (320 g a.i./ha), with Avena fatua [10] (20 g a.i./ha) and in the assay with Avena fatua [10] (80 g a.i./ha) was 100% throughout. In addition, the “Herbicidal effect against [%] ECHCG” value in the assay with Echinochloa crus-galli [3] (80 g a.i./ha), in the assay on Echinochloa crus-galli [3] (320 g a.i./ha), with Echinochloa crus-galli [6] (20 g a.i./ha) and in the assay with Echinochloa crus-galli [6] (80 g a.i./ha) was 100% in each case. Moreover, the “Herbicidal effect against [%] LOLMU” value in the assay on Lolium multiflorum [4] (80 g a.i./ha), in the assay with Lolium multiflorum [4] (320 g a.i./ha), in the assay with Lolium multiflorum [8] (20 g a.i./ha) and in the assay on Lolium multiflorum [8] (80 g a.i./ha) was 100% in each case. Further, the “Herbicidal effect against [%] SETVI” value in the assay on Setaria viridis [5] (80 g a.i./ha), in the assay on Setaria viridis [5] (320 g a.i./ha), in the assay on Setaria viridis [9] (20 g a.i./ha) and in the assay with Setaria viridis [9] (80 g a.i./ha) was 100% each time.
